Here are results for 23 compounds from patent publication US9737545B2 (MERCK SHARP & DOHME CORP., priority 2013, dated 2017).

This assay concerns the target T1, wildtype HIV-1 protease (Human immunodeficiency virus type 1 group M subtype B, UniProt P04585).
T1 construct: preincubated with the HIV-1 protease (wild type) enzyme in assay buffer; made in house; host or cells: Escherichia coli
Nature of the assay: Assay for Inhibition of Microbial Expressed HIV Protease (Pepcleav). The class given is biochemical. As to the method: Assay for Inhibition of Microbial Expressed HIV Protease (“Pepcleav”)
Studies of the inhibition of the wildtype HIV-1 protease (which was expressed in Escherichia coli) were carried out with a peptide substrate [Val-Ser-Gln-Asn-(βnaphthyl)Ala-Pro-Ile-Val (SEQ ID NO: 1)]. The inhibitor was first preincubated with the HIV-1 protease (wild type) enzyme in assay buffer (50 mM sodium acetate, pH 5.5, 100 mM NaCl, and 0.1% BSA) for 30 minutes at room temperature. Substrate was added to 400 micromolar in a total volume of 20 microliters containing 20 picomolar HIV-1 protease (final) and the reaction was incubated for 1 hour at 30° C. The reaction was quenched with the addition of formic acid and indinavir to 0.012% and 150 nM final concentrations, respectively. The product formation was determined after separation of product and substrate on a Zorbax Eclipse XDB-C18 column connected to an API 4000 mass spectrometer (Applied Biosystems) with multiple reaction monitoring (transitions were 644.5/428.9 and 615.4/422.2 (M1/M3) for product and indinavir respectively). The extent of inhibition of the reaction was determined from the peak area of the products. Analysis of the products, independently synthesized, provided quantitation standards and confirmation of the product composition.

The structures appear in SMILES notation.

The compound `COC(=O)N[C@H](C(=O)Nc1ccccc1CC[C@@H]1CN[C@H](c2nc3ccccc3[nH]2)CO1)C(c1ccccc1)c1ccccc1` [Example 1, N-(2-{2-[(2R,5R)-5-(1H-benzimidazol-2-yl)morpholin-2-yl]ethyl}phenyl)-Nα-(methoxycarbonyl)-β-phenyl-L-phenylalaninamide] came in with an IC50 of 0.0374 nM. `COC(=O)N[C@H](C(=O)Nc1ccccc1CC[C@@H]1CN[C@H](c2nc3ccccc3n2C)CO1)C(c1ccccc1)c1ccccc1` [Example 2, methyl N-[(1S)-1-benzhydryl-2-[[2-[2-[(2R,5R)-5-(1-methylbenzimidazol-2-yl)morpholin-2-yl]ethyl]phenyl]amino]-2-oxo-ethyl]carbamate]: the IC50 stood at 7.96 nM.

The compound `COC(=O)N[C@H](C(=O)Nc1ccccc1CC[C@@H]1CN[C@H](c2nc3cccc(C)c3[nH]2)CO1)C(c1ccccc1)c1ccccc1` [Example 3, methyl N-[(1S)-1-benzhydryl-2-[[2-[2-[(2R,5R)-5-(7-methyl-1H-benzimidazol-2-yl)morpholin-2-yl]ethyl]phenyl]amino]-2-oxo-ethyl]carbamate] returned an IC50 of 0.0639 nM. `COC(=O)N[C@H](C(=O)Nc1ccccc1CC[C@@H]1CN[C@H](c2nc3ccc(C)cc3[nH]2)CO1)C(c1ccccc1)c1ccccc1` [Example 4, methyl N-[(1S)-1-benzhydryl-2-[[2-[2-[(2R,5R)-5-(6-methyl-1H-benzimidazol-2-yl)morpholin-2-yl]ethyl]phenyl]amino]-2-oxo-ethyl]carbamate] registered a half-inhibitory concentration (IC50) of 0.0923 nM. The value for `COC(=O)N[C@H](C(=O)Nc1ccccc1CC[C@@H]1CN[C@H](c2nc3ccncc3[nH]2)CO1)C(c1ccccc1)c1ccccc1` [Example 5, methyl N-[(1S)-1-benzhydryl-2-[[2-[2-[(2R,5R)-5-(3H-imidazo[4,5-c]pyridin-2-yl)morpholin-2-yl]ethyl]phenyl]amino]-2-oxo-ethyl]carbamate] was 7.41 nM; that for `COC(=O)N[C@H](C(=O)Nc1ccccc1CC[C@@H]1CN[C@H](c2nc3ccc(OC)cc3[nH]2)CO1)C(c1ccccc1)c1ccccc1` [Example 6, methyl N-[(1S)-1-benzhydryl-2-[[2-[2-[(2R,5R)-5-(6-methoxy-1H-benzimidazol-2-yl)morpholin-2-yl]ethyl]phenyl]amino]-2-oxo-ethyl]carbamate] was 0.334 nM. The compound `COC(=O)N[C@H](C(=O)Nc1ccccc1CC[C@@H]1CN[C@H](c2nc3ccc(S(C)(=O)=O)cc3[nH]2)CO1)C(c1ccccc1)c1ccccc1` [Example 7, methyl N-[(1S)-1-benzhydryl-2-[[2-[2-[(2R,5R)-5-(6-methylsulfonyl-1H-benzimidazol-2-yl)morpholin-2-yl]ethyl]phenyl]amino]-2-oxo-ethyl]carbamate] had an IC50 of 37.1 nM. The figure for `COC(=O)N[C@H](C(=O)Nc1ccccc1CC[C@@H]1CN[C@H](c2nc3ccc(C(F)(F)F)cc3[nH]2)CO1)C(c1ccccc1)c1ccccc1` [Example 8, methyl N-[(1S)-1-benzhydryl-2-oxo-2-[[2-[2-[(2R,5R)-5-[6-(trifluoromethyl)-1H-benzimidazol-2-yl]morpholin-2-yl]ethyl]phenyl]amino]ethyl]carbamate] is 0.504 nM; for `COC(=O)N[C@H](C(=O)Nc1ccccc1CC[C@@H]1CN[C@H](c2nc3cc(C)c(C)cc3[nH]2)CO1)C(c1ccccc1)c1ccccc1` [Example 9, methyl N-[(1S)-1-benzhydryl-2-[[2-[2-[(2R,5R)-5-(5,6-dimethyl-1H-benzimidazol-2-yl)morpholin-2-yl]ethyl]phenyl]amino]-2-oxo-ethyl]carbamate] it is 0.0516 nM; for `COC(=O)N[C@H](C(=O)Nc1ccccc1CC[C@@H]1CN[C@H](c2nc3ccc(C#N)cc3[nH]2)CO1)C(c1ccccc1)c1ccccc1` [Example 10, methyl N-[(1S)-1-benzhydryl-2-[[2-[2-[(2R,5R)-5-(6-cyano-1H-benzimidazol-2-yl)morpholin-2-yl]ethyl]phenyl]amino]-2-oxo-ethyl]carbamate] it is 1.59 nM.

Turning to `COC(=O)N[C@H](C(=O)Nc1ccccc1CC[C@@H]1CN[C@H](c2nc3ccc(Br)cc3[nH]2)CO1)C(c1ccccc1)c1ccccc1` [Example 11, methyl N-[(1S)-1-benzhydryl-2-[[2-[2-[(2R,5R)-5-(6-bromo-1H-benzimidazol-2-yl)morpholin-2-yl]ethyl]phenyl]amino]-2-oxo-ethyl]carbamate], the IC50 came out at 0.411 nM. The figure for `COC(=O)N[C@H](C(=O)Nc1ccccc1CC[C@@H]1CN[C@H](c2nc3cc(Cl)c(Cl)cc3[nH]2)CO1)C(c1ccccc1)c1ccccc1` [Example 12] is 0.706 nM. The figure for `COC(=O)N[C@H](C(=O)Nc1ccccc1CC[C@@H]1CN[C@H](c2nc3cccc(Cl)c3[nH]2)CO1)C(c1ccccc1)c1ccccc1` [Example 13, methyl N-[(1S)-1-benzhydryl-2-[[2-[2-[(2R,5R)-5-(7-chloro-1H-benzimidazol-2-yl)morpholin-2-yl]ethyl]phenyl]amino]-2-oxo-ethyl]carbamate] is 0.137 nM; for `COC(=O)N[C@H](C(=O)Nc1ccccc1CC[C@@H]1CN[C@H](c2nc3cccc(Br)c3[nH]2)CO1)C(c1ccccc1)c1ccccc1` [Example 14, methyl N-[(1S)-1-benzhydryl-2-[[2-[2-[(2R,5R)-5-(7-bromo-1H-benzimidazol-2-yl)morpholin-2-yl]ethyl]phenyl]amino]-2-oxo-ethyl]carbamate] it is 0.592 nM; for `COC(=O)N[C@H](C(=O)Nc1ccccc1CC[C@@H]1CN[C@H](c2nc3c(O)cccc3[nH]2)CO1)C(c1ccccc1)c1ccccc1` [Example 15, methyl N-[(1S)-1-benzhydryl-2-[[2-[2-[(2R,5R)-5-(4-hydroxy-1H-benzimidazol-2-yl)morpholin-2-yl]ethyl]phenyl]amino]-2-oxo-ethyl]carbamate] it is 0.0559 nM. The value for `COC(=O)N[C@H](C(=O)Nc1ccccc1CC[C@@H]1CN[C@H](c2nc3cc(F)c(F)cc3[nH]2)CO1)C(c1ccccc1)c1ccccc1` [Example 16, methyl N-[(1S)-1-benzhydryl-2-[[2-[2-[(2R,5R)-5-(5,6-difluoro-1H-benzimidazol-2-yl)morpholin-2-yl]ethyl]phenyl]amino]-2-oxo-ethyl]carbamate] was 0.0246 nM; that for `COC(=O)N[C@H](C(=O)Nc1ccccc1CC[C@@H]1CN[C@H](c2nc3c(F)c(F)c(F)cc3[nH]2)CO1)C(c1ccccc1)c1ccccc1` [Example 17, methyl N-[(1S)-1-benzhydryl-2-oxo-2-[[2-[2-[(2R,5R)-5-(4,5,6-trifluoro-1H-benzimidazol-2-yl)morpholin-2-yl]ethyl]phenyl]amino]ethyl]carbamate] was 0.0747 nM; that for `COC(=O)N[C@H](C(=O)Nc1ccccc1CC[C@@H]1CN[C@H](c2nc3ccc(F)cc3[nH]2)CO1)C(c1ccccc1)c1ccccc1` [Example 18, methyl N-[(1S)-1-benzhydryl-2-[[2-[2-[(2R,5R)-5-(6-fluoro-1H-benzimidazol-2-yl)morpholin-2-yl]ethyl]phenyl]amino]-2-oxo-ethyl]carbamate] was 0.125 nM. `COC(=O)N[C@H](C(=O)Nc1ccccc1CC[C@@H]1CN[C@H](c2nc3c(Br)cc(C)cc3[nH]2)CO1)C(c1ccccc1)c1ccccc1` [Example 19, methyl N-[(1S)-1-benzhydryl-2-[[2-[2-[(2R,5R)-5-(4-bromo-6-methyl-1H-benzimidazol-2-yl)morpholin-2-yl]ethyl]phenyl]amino]-2-oxo-ethyl]carbamate] displayed an IC50 of 0.573 nM. The figure for `COC(=O)N[C@H](C(=O)Nc1ccccc1CC[C@@H]1CN[C@H](c2nc3cc(F)c(Br)cc3[nH]2)CO1)C(c1ccccc1)c1ccccc1` [Example 20, methyl N-[(1S)-1-benzhydryl-2-[[2-[2-[(2R,5R)-5-(6-bromo-5-fluoro-1H-benzimidazol-2-yl)morpholin-4-ium-2-yl]ethyl]phenyl]amino]-2-oxo-ethyl]carbamate] is 0.525 nM; for `COC(=O)N[C@H](C(=O)Nc1ccccc1CC[C@@H]1CN[C@H](c2nc3nccnc3[nH]2)CO1)C(c1ccccc1)c1ccccc1` [Example 21, methyl N-[(1S)-1-benzhydryl-2-[[2-[2-[(2R,5R)-5-(3H-imidazo[4,5-b]pyrazin-2-yl)morpholin-2-yl]ethyl]phenyl]amino]-2-oxo-ethyl]carbamate] it is 1.68 nM; for `COC(=O)N[C@H](C(=O)Nc1ccccc1CC[C@@H]1CN[C@H](c2nc3cc(Cl)c(C)cc3[nH]2)CO1)C(c1ccccc1)c1ccccc1` [Example 22, methyl N-[(1S)-1-benzhydryl-2-[[2-[2-[(2R,5R)-5-(5-chloro-6-methyl-1H-benzimidazol-2-yl)morpholin-2-yl]ethyl]phenyl]amino]-2-oxo-ethyl]carbamate] it is 1.93 nM.

As to `COC(=O)N[C@H](C(=O)Nc1ccccc1CC[C@@H]1CN[C@H](c2nc3c(C)ccnc3[nH]2)CO1)C(c1ccccc1)c1ccccc1` [Example 23, methyl N-[(1S)-1-benzhydryl-2-[[2-[2-[(2R,5R)-5-(7-methyl-3H-imidazo[4,5-b]pyridin-2-yl)morpholin-2-yl]ethyl]phenyl]amino]-2-oxo-ethyl]carbamate], the IC50 was 3.13 nM.
